Activity calls are given as the source filed them. The calls are words filed in the database; no cut-off is given here.
Key:
[1] = molecular target: Proteasome subunit beta type-5 (Homo sapiens) (UniProt P28074); test: Inhibition of 26S proteasome beta 5 in human HEK293 cell lysate assessed as residual activity at 1.5 uM after 1 hr
[2] = molecular target: Proteasome subunit beta type-5 (Homo sapiens) (UniProt P28074); test: Inhibition of 26S proteasome beta 5 in human HEK293 cell lysate assessed as residual activity at 0.5 uM after 1 hr
[3] = molecular target: Proteasome Macropain subunit (Homo sapiens) (UniProt P49721); test: (§1) Inhibition of 26S proteasome beta 2 in human HEK293 cell lysate assessed as residual activity at […] after 1 hr; assay type: cell-free
Sequence of Proteasome Macropain subunit (Homo sapiens) (P49721 whole entry): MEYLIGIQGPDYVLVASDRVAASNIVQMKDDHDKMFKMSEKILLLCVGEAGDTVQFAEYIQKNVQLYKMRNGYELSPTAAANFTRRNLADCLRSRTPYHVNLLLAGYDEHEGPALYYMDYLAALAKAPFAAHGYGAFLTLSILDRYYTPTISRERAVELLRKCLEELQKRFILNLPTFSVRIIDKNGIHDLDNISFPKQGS

[4] = molecular target: Proteasome Macropain subunit (Homo sapiens) (UniProt P49721); test: Inhibition of 26S proteasome beta 2 in human HEK293 cell lysate assessed as residual activity at 0.167 uM after 1 hr; assay type: cell-free
[5] = molecular target: T1, Proteasome component C5 (Homo sapiens) (UniProt P20618); test: Displacement of fluorescent labeled MV151 from 26S proteasome beta 1 in human HEK293 cell lysate assessed as residual activity at 100 uM after 1 hr by SDS-PAGE; assay type: cell-free
T1 sequence (whole entry): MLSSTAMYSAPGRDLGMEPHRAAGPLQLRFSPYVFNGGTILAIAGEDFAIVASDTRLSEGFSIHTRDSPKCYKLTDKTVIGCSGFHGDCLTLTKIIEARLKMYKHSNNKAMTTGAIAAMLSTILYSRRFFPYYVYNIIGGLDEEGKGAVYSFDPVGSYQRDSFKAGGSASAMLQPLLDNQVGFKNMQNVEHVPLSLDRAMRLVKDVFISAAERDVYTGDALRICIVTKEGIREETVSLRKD

[6] = molecular target: Proteasome Macropain subunit (Homo sapiens) (UniProt P49721); test: Displacement of fluorescent labeled MV151 from 26S proteasome beta 2 in human HEK293 cell lysate assessed as residual activity at 100 uM after 1 hr by SDS-PAGE; assay type: cell-free
[7] = molecular target: T2, Proteasome Macropain subunit MB1 (Homo sapiens) (UniProt P28074); test: Displacement of fluorescent labeled MV151 from 26S proteasome beta 5 in human HEK293 cell lysate assessed as residual activity at 100 uM after 1 hr by SDS-PAGE; assay type: cell-free
T2 sequence (whole entry): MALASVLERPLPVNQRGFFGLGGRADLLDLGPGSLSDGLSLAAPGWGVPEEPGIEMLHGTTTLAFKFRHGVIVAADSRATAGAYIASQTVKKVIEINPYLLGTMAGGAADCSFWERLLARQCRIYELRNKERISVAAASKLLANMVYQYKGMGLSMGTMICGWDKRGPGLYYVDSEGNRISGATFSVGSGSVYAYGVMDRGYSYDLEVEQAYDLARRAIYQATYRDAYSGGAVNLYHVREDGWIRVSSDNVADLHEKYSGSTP

[8] = molecular target: T1, Proteasome component C5 (Homo sapiens); test: Inhibition of 26S proteasome beta 1 in human HEK293 cell lysate assessed as residual activity at 0.5 uM after 1 hr; assay type: cell-free
[9] = molecular target: T2, Proteasome Macropain subunit MB1 (Homo sapiens); test: Displacement of fluorescent labeled MV151 from 26S proteasome beta 5 in human HEK293 cell lysate assessed as residual activity at 1 uM after 1 hr by SDS-PAGE; assay type: cell-free
[10] = molecular target: Proteasome Macropain subunit (Homo sapiens) (UniProt P49721); test: Displacement of fluorescent labeled MV151 from 26S proteasome beta 2 in human HEK293 cell lysate assessed as residual activity at 1 uM after 1 hr by SDS-PAGE; assay type: cell-free
[11] = molecular target: Proteasome subunit beta type-5 (Homo sapiens) (UniProt P28074); test: Inhibition of 26S proteasome beta 5 in human HEK293 cell lysate assessed as residual activity at 13.5 uM after 1 hr
[12] = molecular target: T1, Proteasome component C5 (Homo sapiens); test: (§2) Inhibition of 26S proteasome beta 1 in human HEK293 cell lysate assessed as residual activity at […] after 1 hr; assay type: cell-free
[13] = molecular target: T1, Proteasome component C5 (Homo sapiens); test: Inhibition of 26S proteasome beta 1 in human HEK293 cell lysate assessed as residual activity at 13.5 uM after 1 hr; assay type: cell-free
[14] = molecular target: Proteasome subunit beta type-5 (Homo sapiens) (UniProt P28074); test: Inhibition of 26S proteasome beta 5 in human HEK293 cell lysate assessed as residual activity at […] after 1 hr
[15] = molecular target: Proteasome Macropain subunit (Homo sapiens) (UniProt P49721); test: Inhibition of 26S proteasome beta 2 in human HEK293 cell lysate assessed as residual activity at 0.5 uM after 1 hr; assay type: cell-free
[16] = molecular target: Proteasome Macropain subunit (Homo sapiens) (UniProt P49721); test: as §1; assay type: cell-free; remark: listed apart in the source
[17] = molecular target: Proteasome Macropain subunit (Homo sapiens) (UniProt P49721); test: Inhibition of 26S proteasome beta 2 in human HEK293 cell lysate assessed as residual activity at 13.5 uM after 1 hr; assay type: cell-free
[18] = molecular target: T1, Proteasome component C5 (Homo sapiens); test: as §2; assay type: cell-free; remark: listed apart in the source
[19] = molecular target: Proteasome subunit beta type-5 (Homo sapiens) (UniProt P28074); test: Inhibition of 26S proteasome beta 5 in human HEK293 cell lysate assessed as residual activity at 0.167 uM after 1 hr
[20] = molecular target: T1, Proteasome component C5 (Homo sapiens); test: Displacement of fluorescent labeled MV151 from 26S proteasome beta 1 in human HEK293 cell lysate assessed as residual activity at 1 uM after 1 hr by SDS-PAGE; assay type: cell-free
[21] = molecular target: T1, Proteasome component C5 (Homo sapiens); test: Inhibition of 26S proteasome beta 1 in human HEK293 cell lysate assessed as residual activity at 0.167 uM after 1 hr; assay type: cell-free
[22] = molecular target: Proteasome Macropain subunit (Homo sapiens) (UniProt P49721); test: Inhibition of 26S proteasome beta 2 in human HEK293 cell lysate assessed as residual activity at 1.5 uM after 1 hr; assay type: cell-free
[23] = molecular target: Proteasome subunit beta type-5 (Homo sapiens) (UniProt P28074); test: Inhibition of 26S proteasome beta 5 in human HEK293 cell lysate assessed as residual activity at […] after 1 hr; remark: listed apart in the source
[24] = molecular target: T1, Proteasome component C5 (Homo sapiens); test: Inhibition of 26S proteasome beta 1 in human HEK293 cell lysate assessed as residual activity at 1.5 uM after 1 hr; assay type: cell-free
[25] = molecular target: T2, Proteasome Macropain subunit MB1 (Homo sapiens); test: Displacement of fluorescent labeled MV151 from 26S proteasome beta 5 in human HEK293 cell lysate assessed as disappearance of band at 0.1 to 1 uM after 1 hr by SDS-PAGE; assay type: cell-free
[26] = molecular target: T1, Proteasome component C5 (Homo sapiens); test: Displacement of fluorescent labeled MV151 from 26S proteasome beta 1 in human HEK293 cell lysate assessed as disappearance of band at 0.1 to 1 uM after 1 hr by SDS-PAGE; assay type: cell-free
[27] = molecular target: Proteasome Macropain subunit (Homo sapiens) (UniProt P49721); test: Inhibition of 26S proteasome beta 2 in human HEK293 cell lysate assessed as residual activity at 0.001 uM after 1 hr; assay type: cell-free
[28] = molecular target: T1, Proteasome component C5 (Homo sapiens); test: Inhibition of 26S proteasome beta 1 in human HEK293 cell lysate assessed as residual activity at 0.019 uM after 1 hr; assay type: cell-free
[29] = molecular target: T1, Proteasome component C5 (Homo sapiens); test: Inhibition of 26S proteasome beta 1 in human HEK293 cell lysate assessed as residual activity at 0.006 uM after 1 hr; assay type: cell-free
[30] = molecular target: T1, Proteasome component C5 (Homo sapiens); test: Inhibition of 26S proteasome beta 1 in human HEK293 cell lysate assessed as residual activity at 0.002 uM after 1 hr; assay type: cell-free
[31] = molecular target: Proteasome Macropain subunit (Homo sapiens) (UniProt P49721); test: Inhibition of 26S proteasome beta 2 in human HEK293 cell lysate assessed as residual activity at 0.006 uM after 1 hr; assay type: cell-free
[32] = molecular target: Proteasome Macropain subunit (Homo sapiens) (UniProt P49721); test: Inhibition of 26S proteasome beta 2 in human HEK293 cell lysate assessed as residual activity at 0.002 uM after 1 hr; assay type: cell-free
[33] = molecular target: T1, Proteasome component C5 (Homo sapiens); test: Inhibition of 26S proteasome beta 1 in human HEK293 cell lysate assessed as residual activity at 0.001 uM after 1 hr; assay type: cell-free
[34] = molecular target: Proteasome Macropain subunit (Homo sapiens) (UniProt P49721); test: Inhibition of 26S proteasome beta 2 in human HEK293 cell lysate assessed as residual activity at 0.019 uM after 1 hr; assay type: cell-free

Row | SMILES | Activity [3] | Activity [4] | Activity [5] | Activity [6] | Activity [7] | Activity [8] | Activity [9] | Activity [10] | Activity [12] | Activity [13] | Activity [15] | Activity [16] | Activity [17] | Activity [18] | Activity [20] | Activity [21] | Activity [22] | Activity [24] | Activity [27] | Activity [28] | also measured
1 | CC(C)C[C@H](NC(=O)[C@H](Cc1ccccc1)NC(=O)[C@H](Cc1c(F)c(F)c(F)c(F)c1F)NC(=O)[C@H](Cc1ccccc1)N=[N+]=[N-])C(=O)[C@@]1(C)CO1 | 98.7% | 89.9% | 87.6% | 56.9% | 0.83% | 103% | 89.1% | 2.9% | 83.2% | 73.1% | 118% | 119% | 98.4% | 102% | 82.1% | 89.4% | 127% | 115% | – | – | Activity [1]: 14.7%; Activity [2]: 29.7%; Activity [11]: 5.8%; Activity [14]: 8%; Activity [19]: 48.9%; Activity [23]: 56.2%
2 | CC(C)C[C@H](NC(=O)[C@H](Cc1c(F)c(F)c(F)c(F)c1F)NC(=O)[C@H](Cc1c(F)c(F)c(F)c(F)c1F)NC(=O)[C@H](Cc1ccccc1)N=[N+]=[N-])C(=O)[C@@]1(C)CO1 | – | – | 115% | 43.2% | 7.4% | – | 94.9% | 20.4% | – | – | – | – | – | – | 148% | – | – | – | – | – | –
3 | CC(C)C[C@H](NC(=O)[C@H](Cc1cc(C(F)(F)F)cc(C(F)(F)F)c1)NC(=O)[C@H](Cc1cc(C(F)(F)F)cc(C(F)(F)F)c1)NC(=O)[C@H](Cc1ccccc1)N=[N+]=[N-])C(=O)[C@@]1(C)CO1 | – | – | 100% | 149% | 31% | – | 79% | 48% | – | – | – | – | – | – | 192% | – | – | – | – | – | –
4 | CC(C)C[C@H](NC(=O)[C@H](Cc1ccccc1)NC(=O)c1cnccn1)B1OC2C[C@@H]3C[C@@H](C3(C)C)[C@]2(C)O1 (stereo partly drawn) | – | – | – | – | – | – | – | – | – | – | – | – | – | – | – | – | – | – | – | – | Activity [25]: Active; Activity [26]: Active
5 | CC(C)C[C@H](NC(=O)[C@H](Cc1ccccc1)NC(=O)[C@H](Cc1ccccc1)NC(=O)[C@H](Cc1ccccc1)N=[N+]=[N-])C(=O)[C@@]1(C)CO1 | 115% | 89% | 7.2% | 133% | – | 58.4% | 4.6% | – | 104% | 58.3% | 65.8% | 26.1% | 10.6% | 54% | 139% | 84.9% | 37% | 69.9% | 106% | 76.8% | Activity [29]: 96.5%; Activity [30]: 100%; Activity [31]: 105%; Activity [32]: 109%; Activity [33]: 105%; Activity [34]: 82%
6 | CC(C)C[C@H](NC(=O)[C@H](Cc1c(F)c(F)c(F)c(F)c1F)NC(=O)[C@H](Cc1ccccc1)NC(=O)[C@H](Cc1ccccc1)N=[N+]=[N-])C(=O)[C@@]1(C)CO1 | 120% | 112% | 15.4% | 116% | – | 98.3% | 11.6% | – | 105% | 71.2% | 95.6% | 71% | 54.1% | 77.6% | 248% | 99.5% | 84.2% | 90.1% | 105% | 104% | Activity [29]: 77.3%; Activity [30]: 106%; Activity [31]: 90.7%; Activity [32]: 106%; Activity [33]: 100%; Activity [34]: 109%
7 | CC(C)C[C@H](NC(=O)[C@H](Cc1c(F)c(F)c(F)c(F)c1F)NC(=O)c1cnccn1)B1OC2C[C@@H]3C[C@@H](C3(C)C)[C@]2(C)O1 (stereo partly drawn) | 118% | 121% | – | – | – | 40.4% | – | – | 92.1% | 1.3% | 118% | 118% | 110% | 3.1% | – | 68.7% | 135% | 12% | 110% | 99.5% | Activity [29]: 97.5%; Activity [30]: 96.1%; Activity [31]: 104%; Activity [25]: Active; Activity [26]: Active; Activity [32]: 99%; Activity [33]: 110%; Activity [34]: 102%

— ChEMBL document CHEMBL1157550, “Incorporation of fluorinated phenylalanine generates highly specific inhibitor of proteasome's chymotrypsin-like sites” (J Med Chem, 2010)
